For 14 compounds, IC50 and EC50 results are on record in ChEMBL document CHEMBL1156007, “mu-Opioid/5-HT4 dual pharmacologically active agents-efforts towards an effective opioid analgesic with less GI and respiratory side effects (Part I)” (Bioorg Med Chem Lett, 2009).

For one test, the target named is Mu-type opioid receptor (Homo sapiens, UniProt P35372). The test can be described thus: Binding affinity to human mu opioid receptor.
Test [1] addresses T1, 5-hydroxytryptamine receptor 4 (Homo sapiens, UniProt Q13639). The test can be described thus: Displacement of [3H]GR-113808 from human recombinant 5-HT4 receptor. Background: Loss of bound radioactivity is the signal in a displacement assay; it reports binding, not function.
Test [2] concerns the target T2, 5-hydroxytryptamine receptor 3A (Homo sapiens, UniProt P46098).
T2 sequence (P46098 whole entry): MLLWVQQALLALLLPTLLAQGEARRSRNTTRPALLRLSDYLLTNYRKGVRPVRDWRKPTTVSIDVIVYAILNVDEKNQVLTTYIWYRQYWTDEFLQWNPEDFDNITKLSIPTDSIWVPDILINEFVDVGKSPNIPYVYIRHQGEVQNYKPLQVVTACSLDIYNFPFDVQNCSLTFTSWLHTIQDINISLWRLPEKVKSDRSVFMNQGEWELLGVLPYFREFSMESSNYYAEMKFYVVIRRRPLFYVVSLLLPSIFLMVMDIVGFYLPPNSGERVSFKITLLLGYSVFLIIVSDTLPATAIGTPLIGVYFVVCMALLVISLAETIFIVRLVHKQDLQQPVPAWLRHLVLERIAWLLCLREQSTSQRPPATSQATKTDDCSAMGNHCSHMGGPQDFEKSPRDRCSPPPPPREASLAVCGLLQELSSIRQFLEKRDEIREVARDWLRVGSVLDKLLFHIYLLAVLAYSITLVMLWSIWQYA
The test can be described thus: Displacement of [3H]granisetron from human recombinant 5-HT3 receptor expressed in HEK293 cells. Type of test: cell-based.

Test [3] has as its target T1, 5-hydroxytryptamine receptor 4. As to the kind of experiment: Agonist activity at human recombinant 5-HT4 receptor. Type of test: functional.
The target of test [4] is T2, 5-hydroxytryptamine receptor 3A. As to the kind of experiment: Antagonist activity at human recombinant 5-HT3 receptor expressed in HEK293 cells. Type of test: functional, cell-based.

Mu-type opioid receptor, sequence (P35372 whole entry): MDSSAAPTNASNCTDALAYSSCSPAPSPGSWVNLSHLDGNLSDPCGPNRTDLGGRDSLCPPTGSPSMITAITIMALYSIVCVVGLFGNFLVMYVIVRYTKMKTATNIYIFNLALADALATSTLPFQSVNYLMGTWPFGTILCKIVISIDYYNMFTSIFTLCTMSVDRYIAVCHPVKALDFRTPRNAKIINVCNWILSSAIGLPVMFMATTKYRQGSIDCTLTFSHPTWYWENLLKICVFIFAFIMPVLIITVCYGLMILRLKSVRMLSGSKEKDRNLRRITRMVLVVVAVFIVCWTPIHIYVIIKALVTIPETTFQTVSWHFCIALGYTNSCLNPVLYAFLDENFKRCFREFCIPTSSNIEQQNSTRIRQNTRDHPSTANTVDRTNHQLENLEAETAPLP
T1 sequence (Q13639 whole entry): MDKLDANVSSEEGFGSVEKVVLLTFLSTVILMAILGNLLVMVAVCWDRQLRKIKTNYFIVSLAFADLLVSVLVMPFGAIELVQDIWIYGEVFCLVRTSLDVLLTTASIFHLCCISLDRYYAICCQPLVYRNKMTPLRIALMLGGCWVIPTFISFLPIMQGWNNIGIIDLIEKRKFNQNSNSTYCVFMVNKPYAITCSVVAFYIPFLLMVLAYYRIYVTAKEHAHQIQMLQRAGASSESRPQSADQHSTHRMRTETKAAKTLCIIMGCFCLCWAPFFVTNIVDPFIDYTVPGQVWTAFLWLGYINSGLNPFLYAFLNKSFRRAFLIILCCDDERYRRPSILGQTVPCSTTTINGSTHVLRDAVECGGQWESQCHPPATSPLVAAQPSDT

By IC50 is commonly meant the point on the concentration scale where inhibition reaches its midpoint. On to `COc1cc(N)c(Cl)cc1C(=O)NCCN(C)C[C@H]1CCCC[C@]1(O)c1cccc(O)c1`, for which the figures for the IC50 (at Mu-type opioid receptor; in test [1]; in test [2]) were 340 nM, over 10000 nM and 3100 nM, respectively.
The corresponding values for `COc1cccc([C@@]2(O)CCCC[C@@H]2CN2CC[C@H](NC(=O)c3cc(Cl)c(N)cc3OC)[C@H](OC)C2)c1` are over 10000 nM, 6100 nM and 790 nM.
The corresponding values for `COc1cccc([C@]2(O)CCCC[C@H]2CN2CC[C@H](NC(=O)c3cc(Cl)c(N)cc3OC)[C@H](OC)C2)c1` are over 10000 nM, 4600 nM and 1700 nM.
Turning to `COc1cc(N)c(Cl)cc1C(=O)N[C@@H]1CCN(C[C@H]2CCCC[C@]2(O)c2cccc(O)c2)C[C@@H]1OC`, the IC50 at Mu-type opioid receptor was over 10000 nM; in test [1], over 10000 nM; in test [2] it was 1600 nM.
For orientation: EC50 means the concentration that produces a half-maximal response. Turning to `COc1cccc([C@]2(O)CCCC[C@H]2CN2CC[C@@H](NC(=O)c3cc(Cl)c(N)cc3OC)[C@@H](OC)C2)c1`, the results for the IC50 (on Mu-type opioid receptor; in test [1]; in test [2]) were over 10000 nM, 3900 nM and 159 nM, respectively. For the same compound, the EC50 was 120 nM in test [3] and over 10000 nM in test [4].
Turning to `COc1cccc([C@@]2(O)CCCC[C@@H]2CN(C)CCNC(=O)c2cc(Cl)c(N)cc2OC)c1`, the IC50 is 4500 nM at Mu-type opioid receptor, 5000 nM in test [1] and 3500 nM in test [2].
For `COc1cc(N)c(Cl)cc1C(=O)NCCN(C)C[C@@H]1CCCC[C@@]1(O)c1cccc(O)c1` the same measures were 5100 nM, over 10000 nM and 2500 nM.
For `COc1cc(N)c(Cl)cc1C(=O)N[C@@H]1CCN(C[C@@H]2CCCC[C@@]2(O)c2cccc(O)c2)C[C@@H]1OC` the same measures were over 10000 nM, over 10000 nM and 1400 nM.
For `COc1cccc([C@@]2(O)CCCC[C@@H]2CN2CC[C@@H](NC(=O)c3cc(Cl)c(N)cc3OC)[C@@H](OC)C2)c1` the same measures were over 10000 nM, over 10000 nM and 2800 nM.
On to `COc1cccc([C@]2(O)CCCC[C@H]2CN(C)CCNC(=O)c2cc(Cl)c(N)cc2OC)c1`, for which the results for the IC50 (on Mu-type opioid receptor; in test [1]; in test [2]) were over 10000 nM, over 10000 nM and 4900 nM, respectively.
As for `COc1cc(N)c(Cl)cc1C(=O)N[C@H]1CCN(C[C@@H]2CCCC[C@@]2(O)c2cccc(O)c2)C[C@H]1OC`, the IC50 on Mu-type opioid receptor came to 410 nM; in test [1], 9900 nM; in test [2], 18 nM. Also, the half-maximal effective concentration (EC50) in test [3] came out at 90 nM.
Consider `COc1cc(N)c(Cl)cc1C(=O)N[C@H]1CCN(C[C@H]2CCCC[C@]2(O)c2cccc(O)c2)C[C@H]1OC`, for which the IC50 at Mu-type opioid receptor was over 10000 nM; in test [1], over 10000 nM; in test [2], 390 nM.
`COc1cc(N)c(Cl)cc1C(=O)NCCN(C)CC1CCCCC1(O)c1cccc(O)c1` (racemic): the figures for the IC50 (at Mu-type opioid receptor; in test [1]; in test [2]) were 190 nM, over 10000 nM and 2800 nM, respectively.
For `COc1cc(N)c(Cl)cc1C(=O)NC1CCNCC1OC` (racemic) [NORCISAPRIDE], the figures for the IC50 in test [1] and in test [2] were 19 nM and 1600 nM, respectively. Besides, the EC50 is 290 nM in test [3] and 2300 nM in test [4].
